Measured values as given in paper PMC3080024 (Synapse (New York, N.Y.), 2010).
Where “and” joins values, the source holds several entries; their conditions need not be identical. Equal entries are not always repeated. Where two headings read alike, the source gives them in different places. One block for each compound: values may come before it.

Tests used:
p-glycoprotein (Pgp) = conditions: cited from earlier work
5-HT1A receptor sites = assay: Estimated occupancy by unlabeled ligand mass in the PET studies; assay type: in vivo, rhesus monkey; conditions: for occupancy at the 5-HT1A receptor sites: estimated from rat ED50; for occupancy of the unlabeled drug: comparable ED50 assumed
[1] = Arterial plasma kinetics of parent radiotracer; conditions: for fraction of radioactivity in the plasma due to parent radiotracer: 30 minutes after injection; for clearance rate from the arterial plasma: after period of rapid clearance (>30 minutes), bolus injection
5-HT1A receptor [2] = molecular target: T1, 5-HT1A receptor (Macaca mulatta, UniProt F7GIU0); assay type: in vivo, rhesus monkey
T1 sequence (F7GIU0 1-421): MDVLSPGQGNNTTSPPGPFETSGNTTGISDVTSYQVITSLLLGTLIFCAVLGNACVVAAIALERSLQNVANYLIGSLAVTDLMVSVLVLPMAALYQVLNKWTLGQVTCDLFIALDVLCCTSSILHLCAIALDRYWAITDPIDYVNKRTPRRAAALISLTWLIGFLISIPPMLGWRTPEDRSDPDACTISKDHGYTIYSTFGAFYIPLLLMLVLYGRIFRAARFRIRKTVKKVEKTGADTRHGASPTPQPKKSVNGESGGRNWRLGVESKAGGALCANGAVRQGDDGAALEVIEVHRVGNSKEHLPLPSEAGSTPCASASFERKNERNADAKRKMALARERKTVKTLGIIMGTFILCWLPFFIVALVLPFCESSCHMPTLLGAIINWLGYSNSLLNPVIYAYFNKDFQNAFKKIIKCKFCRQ

[3] = Cerebellar kinetics by PET, single-tissue compartment model; conditions: for cerebellar clearance rate, slow component: exponential fit, t > 30 minutes
[4] = ref Pike et al., 2000; Saigal et al., 2006; cited from earlier work
5-HT1A receptor [5] = conditions: ref Saigal et al., 2006, cited from earlier work
[6] = rhesus monkey, previous measurements; ref Saigal et al., 2006; cited from earlier work

- occupancy at the 5-HT1A receptor sites (5-HT1A receptor sites; M1, injected mass 1.0 nmol/kg): 18%
- occupancy at the 5-HT1A receptor sites (5-HT1A receptor sites; M4, injected mass 0.7 nmol/kg): 13%
Compound: COc1ccccc1N1CCN(CCN(C(=O)C2CCCCC2)c2ccccn2)CC1 [WAY100635]
- Pgp substrate (p-glycoprotein (Pgp); not told): Neither mefway nor WAY100635 have been found to be Pgp substrates

- fraction of radioactivity in the plasma due to parent radiotracer [1]: 29%
- clearance rate from the arterial plasma [1]: 0.0069 min⁻¹
- BPND (5-HT1A receptor [2]; ACG, mean over subjects): 7.9±1.2 and 7.92
- BPND (5-HT1A receptor [2]; ACG, subject M1): 6.90
- BPND (5-HT1A receptor [2]; ACG, subject M3): 7.64
- BPND (5-HT1A receptor [2]; ACG, subject M4): 9.21
- BPND (5-HT1A receptor [2]; IC, mean over subjects): 4.7±1.0 and 4.65
- BPND (5-HT1A receptor [2]; IC, subject M1): 4.08
- BPND (5-HT1A receptor [2]; IC, subject M3): 4.11
- BPND (5-HT1A receptor [2]; IC, subject M4): 5.77
- BPND (5-HT1A receptor [2]; MTC, mean over subjects): 7.0±1.2 and 7.00
- BPND (5-HT1A receptor [2]; MTC, subject M1): 5.97
- BPND (5-HT1A receptor [2]; MTC, subject M3): 8.37
- BPND (5-HT1A receptor [2]; MTC, subject M4): 6.66
- BPND (5-HT1A receptor [2]; RN, mean over subjects): 3.3±0.7 and 3.27
- BPND (5-HT1A receptor [2]; RN, subject M1): 3.97
- BPND (5-HT1A receptor [2]; RN, subject M3): 2.66
- BPND (5-HT1A receptor [2]; RN, subject M4): 3.17
- DVND (nondisplaceable distribution volume, K1/k2) ([3]; cerebellum, mean over subjects): 2.62
- DVND (nondisplaceable distribution volume, K1/k2) ([3]; cerebellum, subject M1): 2.55
- DVND (nondisplaceable distribution volume, K1/k2) ([3]; cerebellum, subject M3): 2.62
- DVND (nondisplaceable distribution volume, K1/k2) ([3]; cerebellum, subject M4): 2.70
- cerebellar clearance rate, slow component [3]: 0.014 min⁻¹
- K1 in the cerebellum ([3]; mean over subjects): 0.74 mL/min/mL
- k2 in the cerebellum ([3]; mean over subjects): 0.28 min⁻¹
- K1 in the cerebellum ([3]; subject M1): 0.51 mL/min/mL
- k2 in the cerebellum ([3]; subject M1): 0.20 min⁻¹
- K1 in the cerebellum ([3]; subject M3): 1.10 mL/min/mL
- k2 in the cerebellum ([3]; subject M3): 0.42 min⁻¹
- K1 in the cerebellum ([3]; subject M4): 0.62 mL/min/mL
- k2 in the cerebellum ([3]; subject M4): 0.23 min⁻¹
Compound: COc1ccccc1N1CCN(CCN(C(=O)C2CCCCC2)c2ccccn2)CC1 [[C-11]WAY100635, [Carbonyl-C-11]N-(2-(1-(4-(2-Methoxyphenyl)-piperazinyl)ethyl)-N-pyridinyl) cyclohexanecarboxamide]
- logP [4]: 3.28

Compound: COc1ccccc1N1CCN(CCN(C(=O)c2ccc(F)cc2)c2ccccn2)CC1 [[F-18]MPPF, 4-Fluoro-N-[2-[4-(2-methoxyphenyl)piperazin-1-yl]ethyl]-N-pyridin-2-ylbenzamide]
- fraction of radioactivity in the plasma due to parent radiotracer [1]: 28%
- clearance rate from the arterial plasma [1]: 0.0078 min⁻¹
- Pgp substrate (p-glycoprotein (Pgp); ref Passchier et al., 2000): substrate for p-glycoprotein (Pgp)
- BPND (5-HT1A receptor [2]; ACG, mean over subjects): 2.1±0.2 and 2.12
- BPND (5-HT1A receptor [2]; ACG, subject M1): 2.05
- BPND (5-HT1A receptor [2]; ACG, subject M2): 2.19
- BPND (5-HT1A receptor [2]; ACG, subject M3): 1.93
- BPND (5-HT1A receptor [2]; ACG, subject M4): 2.30
- time to plateau of target to CB ratio (pseudoequilibrium) (5-HT1A receptor [2]; IC (intermediate binding)): approximately 20 minutes
- BPND (5-HT1A receptor [2]; IC, mean over subjects): 1.2±0.1 and 1.15
- BPND (5-HT1A receptor [2]; IC, subject M1): 1.24
- BPND (5-HT1A receptor [2]; IC, subject M2): 1.11
- BPND (5-HT1A receptor [2]; IC, subject M3): 0.98
- BPND (5-HT1A receptor [2]; IC, subject M4): 1.28
- BPND (5-HT1A receptor [2]; MTC, mean over subjects): 3.1±0.4 and 3.14
- BPND (5-HT1A receptor [2]; MTC, subject M1): 3.01
- BPND (5-HT1A receptor [2]; MTC, subject M2): 3.67
- BPND (5-HT1A receptor [2]; MTC, subject M3): 2.99
- BPND (5-HT1A receptor [2]; MTC, subject M4): 2.88
- BPND (5-HT1A receptor [2]; RN, mean over subjects): 1.3±0.3 and 1.34
- BPND (5-HT1A receptor [2]; RN, subject M1): 1.49
- BPND (5-HT1A receptor [2]; RN, subject M2): 1.71
- BPND (5-HT1A receptor [2]; RN, subject M3): 0.98
- BPND (5-HT1A receptor [2]; RN, subject M4): 1.18
- time to plateau of target to CB ratio (pseudoequilibrium) (5-HT1A receptor [2]; high binding regions): approximately 30 minutes
- cerebellar clearance rate, slow component [3]: 0.011 min⁻¹
- K1 in the cerebellum ([3]; mean over subjects): 1.00 mL/min/mL
- k2 in the cerebellum ([3]; mean over subjects): 0.34 min⁻¹
- Kp ([3]; rhesus monkey, in vivo, DVND (nondisplaceable distribution volume, K1/k2), cerebellum, subject M4): 2.89
- K1 in the cerebellum ([3]; subject M2): 0.90 mL/min/mL
- k2 in the cerebellum ([3]; subject M2): 0.29 min⁻¹
- K1 in the cerebellum ([3]; subject M3): 1.32 mL/min/mL
- k2 in the cerebellum ([3]; subject M3): 0.45 min⁻¹
- K1 in the cerebellum ([3]; subject M4): 0.78 mL/min/mL
- k2 in the cerebellum ([3]; subject M4): 0.27 min⁻¹
- occupancy of the unlabeled drug (5-HT1A receptor sites): less than 3%

Compound: COc1ccccc1N1CCN(CCN(C(=O)C2CCC(C[18F])CC2)c2ccccn2)CC1 (stereo not shown) [[F-18]mefway, N-{2-[4-(2-methoxyphenyl)piperazinyl]ethyl}-N-(2-pyridyl)-N-(4-[F-18]-fluoromethylcyclohexane)carboxamide]
- fraction of radioactivity in the plasma due to parent radiotracer [1]: 19%
- clearance rate from the arterial plasma [1]: 0.0031 min⁻¹
- displacement of binding (5-HT1A receptor [5]; competition of 10 μM of WAY100635): almost completely displaced
- BPND (5-HT1A receptor [2]; ACG, mean over subjects): 7.2±1.2
- BPND (5-HT1A receptor [2]; ACG, mean over subjects, listed as [F-18]MEFWAY): 7.15
- BPND (5-HT1A receptor [2]; ACG, subject M1): 6.92
- BPND (5-HT1A receptor [2]; ACG, subject M2): 7.00
- BPND (5-HT1A receptor [2]; ACG, subject M3): 5.87
- BPND (5-HT1A receptor [2]; ACG, subject M4): 8.82
- BPND (5-HT1A receptor [2]; IC, mean over subjects): 4.2±0.6
- BPND (5-HT1A receptor [2]; IC, mean over subjects, listed as [F-18]MEFWAY): 4.16
- BPND (5-HT1A receptor [2]; IC, subject M1): 4.51
- BPND (5-HT1A receptor [2]; IC, subject M2): 3.57
- BPND (5-HT1A receptor [2]; IC, subject M3): 3.72
- BPND (5-HT1A receptor [2]; IC, subject M4): 4.83
- BPND (5-HT1A receptor [2]; MTC, mean over subjects): 7.4±0.6
- BPND (5-HT1A receptor [2]; MTC, mean over subjects, listed as [F-18]MEFWAY): 7.36
- BPND (5-HT1A receptor [2]; MTC, subject M1): 7.23
- BPND (5-HT1A receptor [2]; MTC, subject M2): 8.25
- BPND (5-HT1A receptor [2]; MTC, subject M3): 7.17
- BPND (5-HT1A receptor [2]; MTC, subject M4): 6.77
- plateau of target to CB ratio (5-HT1A receptor [2]; MTC, total time of acquisition): a plateau is not reached within the total time of acquisition
- BPND (5-HT1A receptor [2]; RN, mean over subjects): 3.7±0.6
- BPND (5-HT1A receptor [2]; RN, mean over subjects, listed as [F-18]MEFWAY): 3.69
- BPND (5-HT1A receptor [2]; RN, subject M1): 4.06
- BPND (5-HT1A receptor [2]; RN, subject M2): 4.00
- BPND (5-HT1A receptor [2]; RN, subject M3): 2.85
- BPND (5-HT1A receptor [2]; RN, subject M4): 3.84
- time to plateau of target to CB ratio (5-HT1A receptor [2]; high uptake regions, 2 hour scanning period): > 2 h
- fraction of radiolabeled lipophilic metabolites [6]: < 10%
- DVND (nondisplaceable distribution volume, K1/k2) ([3]; cerebellum, mean over subjects): 4.02
- DVND (nondisplaceable distribution volume, K1/k2) ([3]; cerebellum, subject M1): 4.92
- DVND (nondisplaceable distribution volume, K1/k2) ([3]; cerebellum, subject M2): 3.53
- DVND (nondisplaceable distribution volume, K1/k2) ([3]; cerebellum, subject M3): 4.22
- DVND (nondisplaceable distribution volume, K1/k2) ([3]; cerebellum, subject M4): 3.41
- cerebellar clearance rate, slow component [3]: 0.010 min⁻¹
- K1 in the cerebellum ([3]; mean over subjects): 1.02 mL/min/mL
- k2 in the cerebellum ([3]; mean over subjects): 0.27 min⁻¹
- K1 in the cerebellum ([3]; subject M1): 0.59 mL/min/mL
- k2 in the cerebellum ([3]; subject M1): 0.12 min⁻¹
- K1 in the cerebellum ([3]; subject M2): 1.34 mL/min/mL
- k2 in the cerebellum ([3]; subject M2): 0.38 min⁻¹
- K1 in the cerebellum ([3]; subject M3): 1.14 mL/min/mL
- k2 in the cerebellum ([3]; subject M3): 0.27 min⁻¹
- K1 in the cerebellum ([3]; subject M4): 0.99 mL/min/mL
- k2 in the cerebellum ([3]; subject M4): 0.29 min⁻¹
- occupancy of the unlabeled drug (5-HT1A receptor sites): less than 3%
- logP [4]: 2.62

Compound: COc1ccccc1N1CCN(CCN(C(=O)C2CCC(CF)CC2)c2ccccn2)CC1 (stereo not shown) [mefway]
- Pgp substrate (p-glycoprotein (Pgp); no reference given): Neither mefway nor WAY100635 have been found to be Pgp substrates
- IC50 (5-HT1A receptor [5]; against [F-18]mefway): 25.7 nM
